# According to paper doi:10.1101/2024.12.09.627564, “Cannabinoid inhibition of mechanosensitive K^+ channels” (bioRxiv, 2024):
# Residue numbers refer to the chain shown, from its start. Read-outs that look alike come from different tables or passages of the source.
# Legend:
# Format in all cases: biochemical
# [1] = target: T1, TRAAKG165R (Homo sapiens, UniProt Q9NYG8, G139R); test: Excised patch recording of TRAAK mutant G165R
# T1 construct: The transcribed messages encode H. sapiens TRAAK amino acids 1–393; expressed in transfected cells; host or cells: Xenopus laevis oocytes, cRNA injection
# T1 sequence (Q9NYG8 1-393 G139R): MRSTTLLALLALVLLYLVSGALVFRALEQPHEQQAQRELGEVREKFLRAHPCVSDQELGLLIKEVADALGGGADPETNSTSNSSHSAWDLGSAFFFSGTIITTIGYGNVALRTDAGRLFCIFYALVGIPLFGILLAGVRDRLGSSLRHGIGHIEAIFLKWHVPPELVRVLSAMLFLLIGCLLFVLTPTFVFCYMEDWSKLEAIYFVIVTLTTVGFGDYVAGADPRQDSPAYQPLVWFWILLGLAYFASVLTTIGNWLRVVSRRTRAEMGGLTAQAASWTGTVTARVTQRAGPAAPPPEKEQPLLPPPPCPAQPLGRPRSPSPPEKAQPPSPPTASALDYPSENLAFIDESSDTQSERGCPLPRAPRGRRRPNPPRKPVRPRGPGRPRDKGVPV
# From the text: (§1) For patch clamp recording from Xenopus oocytes, genes encoding full-length Homo sapiens TRAAK (UniProt Q9NYG8–2), TREK-1 (UniProt O95069), and TREK-2 (UniProt P57789) were codon optimized for eukaryotic expression, synthesized (Genewiz), and cloned into a modified pGEMHE vector using Xho1 and EcoR1 restriction sites. The transcribed messages encode H. sapiens TRAAK amino acids 1–393, TREK-1 amino acids 1–426, or TREK-2 amino acids 1–538 with an additional three amino acids (SNS) at the C terminus. TRAAK mutants were introduced by polymerase chain reaction (PCR). Linearized DNA was transcribed in vitro using T7 polymerase. […] Currents were recorded at 25 °C from inside-out patches excised from oocytes 1 to 5 d after RNA injection. […]
# (§2) Patches were evaluated with voltage-step protocols to confirm TRAAK expression and minimal non-specific leak based on reversal potential. Currents were recorded using an Axopatch 200B amplifier (Molecular Devices) at a bandwidth of 1 kHz and digitized with an Digidata 1550B (Molecular Devices) at 100–500 kHz using pClamp10.7 software. […] In an effort to minimize variability associated with differences in resting membrane tension, we targeted patches with low basal curvature and low resting channel activity and ensured measured pressure difference across the patch was as close to zero as possible at rest to prevent mechanical activation of channels. […]
# [2] = target: T2, TRAAKG165E (Homo sapiens, UniProt Q9NYG8, G139E); test: Excised patch recording of TRAAK mutant G165E
# T2 construct: The transcribed messages encode H. sapiens TRAAK amino acids 1–393; expressed in transfected cells; host or cells: Xenopus laevis oocytes, cRNA injection
# T2 sequence (Q9NYG8 1-393 G139E): T1 sequence (Q9NYG8 1-393 G139R) with R139E
# From the text: as §1, §2
# [3] = target: T3, Homo sapiens TRAAK (Homo sapiens, UniProt Q9NYG8); test: Excised inside-out patch recording of TRAAK from Xenopus oocytes; details: for inhibition at 1 µM: 1 μM CBD, read-out: percent inhibition
# T3 construct: The transcribed messages encode H. sapiens TRAAK amino acids 1–393; expressed in transfected cells; host or cells: Xenopus laevis oocytes, cRNA injection
# T3 sequence (Q9NYG8 1-393): T1 sequence (Q9NYG8 1-393 G139R) with R139G
# From the text: For patch clamp recording from Xenopus oocytes, genes encoding full-length Homo sapiens TRAAK (UniProt Q9NYG8–2), TREK-1 (UniProt O95069), and TREK-2 (UniProt P57789) were codon optimized for eukaryotic expression, synthesized (Genewiz), and cloned into a modified pGEMHE vector using Xho1 and EcoR1 restriction sites. The transcribed messages encode H. sapiens TRAAK amino acids 1–393, TREK-1 amino acids 1–426, or TREK-2 amino acids 1–538 with an additional three amino acids (SNS) at the C terminus. TRAAK mutants were introduced by polymerase chain reaction (PCR). Linearized DNA was transcribed in vitro using T7 polymerase. Complementary RNA (0.1 to 10 ng for TRAAK, TREK-1, TREK-2, and mutants) in 50 nL H2O was injected into Xenopus laevis oocytes extracted from anesthetized frogs. Currents were recorded at 25 °C from inside-out patches excised from oocytes 1 to 5 d after RNA injection. The pipette solution contained 15 mM KCl, 135 mM NaCl, 2 mM MgCl2, and 10 mM HEPES (pH = 7.4 with KOH) and the bath solution contained 150 mM KCl and 10 mM HEPES (pH = 7.1 with KOH). Borosilicate glass pipettes were pulled to 2–5 MΩ resistance.
# Patches were evaluated with voltage-step protocols to confirm TRAAK expression and minimal non-specific leak based on reversal potential. Currents were recorded using an Axopatch 200B amplifier (Molecular Devices) at a bandwidth of 1 kHz and digitized with an Digidata 1550B (Molecular Devices) at 100–500 kHz using pClamp10.7 software. Pressure was applied with a second-generation high-speed pressure clamp device (HSPC-2-SB, ALA Scientific Instruments). Aggregated data were from patches from n ≥ 2 different cells on different days. No relevant differences were observed between patches from different cells. In an effort to minimize variability associated with differences in resting membrane tension, we targeted patches with low basal curvature and low resting channel activity and ensured measured pressure difference across the patch was as close to zero as possible at rest to prevent mechanical activation of channels. Data were analyzed using Clampfit 10.7, Excel, and Graphpad Prism software. For voltage families, the data were decimated 100x and plotted in Prism. Statistical analysis was conducted with Dunnett’s multiple comparisons test after an ordinary one-way ANOVA using Prism software.
# To avoid cannabinoid absorption to plastic, cannabinoid solutions were made in glass vials and diluted by weight, perfusion was performed using glass tubing pulled from borosilicate glass Pasteur pipettes (Fisherbrand, Cat# 13–678-20C), and recordings were performed in glass chambers. Channel activity was continuously recorded during perfusion steps. Patches were exposed to each cannabinoid concentration until a stable current level was reached (0.5–2 minutes). CBD (Cayman Chemical cat#90080) was prepared as a 10mM stock solution in DMSO, CBN (Cayman Chemical cat#25495) was prepared as a 80mM stock solution in DMSO, CBDV (Phytolab Cat#85955) was prepared as a 10mM stock solution in DMSO, and CBDP (Cayman Chemical cat#33611) was purchased as a 2.9 mM stock solution in methanol. Cannabinoids were serially diluted in bath solution to achieve working concentrations of 50 μM to 10 nM. Bath volume in the recording chamber was minimized by suction and drug-containing solutions were delivered three times to ensure establishment of desired concentration in the recording chamber. Cannabinoids were applied from low to high concentration. The recording chamber and perfusion system were washed extensively with methanol after every trial.
# The effects of cannabinoids on channel activity were quantified by the reduction in channel current evoked at 0 mV during a gap-free recording or during 200 ms long voltage families with steps ranging from −100 to +100 mV. Currents were normalized to those prior to cannabinoid application to facilitate comparisons across different patches and cells. […]
structure (smiles),measurement,setting,value
"C=C(C)[C@@H]1CCC(C)=C[C@H]1c1c(O)cc(CCCCC)cc1O [CBD, Cannabidiol]",IC50,[1],356 ± 18 nM
same,IC50,[2],162 ± 8 nM
same,IC50,[3],~145 nM
same,inhibition at 1 µM,[3]; after mβCD treatment (high membrane tension),43 ± 13%
same,inhibition at 1 µM,[3]; prior to mβCD treatment,91 ± 3%
same,effect on mechanical activation of TRAAK by negative pressure steps,"[3]; 0.5, 1 and 10 μM CBD",more negative pressure was required to activate TRAAK to the same degree
same,Hill-coefficient,[3]; TRAAK dose-response,1.3
same,fold higher affinity than RU-TRAAK-1 and −2,[3]; TRAAK inhibitors,3–5 fold
same,concentration at which effects are evident,"[3]; TRAAK, excised patches",1 to 10 nM
same,concentration of full inhibition,"[3]; TRAAK, excised patches",~ 1 μM
same,fold higher concentration required for similar inhibition after mβCD treatment,[3]; after vs prior to mβCD treatment,Approximately 10 fold
same,fold higher affinity than ruthenium red and TKDC,[3]; nonspecific TRAAK inhibitors,greater than 10 fold
